Key:
Format in all cases: biochemical
FP receptor = FP receptor (Homo sapiens, UniProt P43088); assay: PG receptor antagonism, FP; set-up: unit not given here; details: antagonist activity at FP receptor
DP receptor = target: T1, DP receptor (Homo sapiens, UniProt Q13258); assay: PG receptor antagonism, DP; set-up: unit not given here; details: antagonist activity at DP receptor
T1 sequence (Q13258 1-359): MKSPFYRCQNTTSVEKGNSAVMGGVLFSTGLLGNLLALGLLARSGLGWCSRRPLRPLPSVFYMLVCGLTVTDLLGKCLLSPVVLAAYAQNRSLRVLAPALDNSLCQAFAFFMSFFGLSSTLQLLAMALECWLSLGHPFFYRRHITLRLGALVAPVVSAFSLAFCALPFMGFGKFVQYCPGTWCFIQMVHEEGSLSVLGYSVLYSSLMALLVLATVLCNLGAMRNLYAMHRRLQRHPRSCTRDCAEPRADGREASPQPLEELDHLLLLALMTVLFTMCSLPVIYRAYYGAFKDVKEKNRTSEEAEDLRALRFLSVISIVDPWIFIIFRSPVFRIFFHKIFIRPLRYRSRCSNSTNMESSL

EP1 receptor = target: T2, EP1 receptor (Homo sapiens, UniProt P34995); assay: PG receptor antagonism, EP1; set-up: unit not given here; details: antagonist activity at EP1 receptor
T2 sequence (P34995 1-402): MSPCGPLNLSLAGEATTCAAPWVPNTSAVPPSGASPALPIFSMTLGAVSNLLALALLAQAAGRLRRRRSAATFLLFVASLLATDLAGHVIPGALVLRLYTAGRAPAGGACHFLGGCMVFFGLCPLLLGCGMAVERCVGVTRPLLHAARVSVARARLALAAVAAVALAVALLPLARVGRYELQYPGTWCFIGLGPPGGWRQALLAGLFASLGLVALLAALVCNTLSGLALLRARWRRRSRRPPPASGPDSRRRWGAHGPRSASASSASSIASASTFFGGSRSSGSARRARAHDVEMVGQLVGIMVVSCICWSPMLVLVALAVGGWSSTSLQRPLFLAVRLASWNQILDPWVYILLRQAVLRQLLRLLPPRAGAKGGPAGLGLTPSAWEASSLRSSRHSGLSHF

EP3 receptor = target: T3, EP3 receptor (Homo sapiens, UniProt P43115); assay: PG receptor antagonism, EP3; set-up: unit not given here; details: antagonist activity at EP3 receptor
T3 sequence (P43115 1-390): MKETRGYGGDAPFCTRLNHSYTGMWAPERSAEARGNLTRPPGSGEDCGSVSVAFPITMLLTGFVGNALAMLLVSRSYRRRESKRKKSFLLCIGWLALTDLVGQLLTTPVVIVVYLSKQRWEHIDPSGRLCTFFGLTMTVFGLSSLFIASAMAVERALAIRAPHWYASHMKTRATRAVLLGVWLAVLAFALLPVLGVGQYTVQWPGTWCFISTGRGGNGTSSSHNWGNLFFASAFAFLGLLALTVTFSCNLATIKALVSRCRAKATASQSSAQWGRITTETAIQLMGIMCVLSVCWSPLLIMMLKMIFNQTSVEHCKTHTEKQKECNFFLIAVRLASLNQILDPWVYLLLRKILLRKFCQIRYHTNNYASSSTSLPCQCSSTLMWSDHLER

EP4 receptor = EP4 receptor (Homo sapiens, UniProt P35408); assay: PG receptor antagonism, EP4; set-up: unit not given here; details: antagonist activity at EP4 receptor
IP receptor = IP receptor (Homo sapiens, UniProt P43119); assay: PG receptor antagonism, IP; set-up: unit not given here; details: antagonist activity at IP receptor
TP receptor = target: T4, TP receptor (Homo sapiens, UniProt P21731); assay: PG receptor antagonism, TP; set-up: unit not given here; details: antagonist activity at TP receptor
T4 sequence (P21731 1-343): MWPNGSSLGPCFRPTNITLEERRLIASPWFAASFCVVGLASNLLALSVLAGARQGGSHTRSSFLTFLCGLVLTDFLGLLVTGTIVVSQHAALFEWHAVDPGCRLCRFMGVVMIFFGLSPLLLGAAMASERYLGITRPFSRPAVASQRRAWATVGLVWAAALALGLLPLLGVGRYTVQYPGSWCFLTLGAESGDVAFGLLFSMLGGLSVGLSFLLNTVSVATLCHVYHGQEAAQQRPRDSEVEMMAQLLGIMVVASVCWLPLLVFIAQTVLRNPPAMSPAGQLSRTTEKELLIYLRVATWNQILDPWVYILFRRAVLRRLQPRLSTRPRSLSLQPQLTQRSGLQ

EP2 receptor = EP2 receptor (Homo sapiens, UniProt P43116); assay: PG receptor antagonism, EP2; details: antagonist activity at EP2 receptor
EP2 receptor, sequence (P43116 whole entry): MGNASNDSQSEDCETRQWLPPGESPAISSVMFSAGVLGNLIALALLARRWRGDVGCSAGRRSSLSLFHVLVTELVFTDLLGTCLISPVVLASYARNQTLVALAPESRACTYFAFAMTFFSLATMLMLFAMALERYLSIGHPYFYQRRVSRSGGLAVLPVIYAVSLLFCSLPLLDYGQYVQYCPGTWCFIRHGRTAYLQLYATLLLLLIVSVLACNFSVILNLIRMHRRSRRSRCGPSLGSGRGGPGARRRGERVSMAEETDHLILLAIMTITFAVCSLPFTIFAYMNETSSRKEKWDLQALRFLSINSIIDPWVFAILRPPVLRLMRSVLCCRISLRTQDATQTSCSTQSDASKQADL

FP receptor, sequence (P43088 whole entry): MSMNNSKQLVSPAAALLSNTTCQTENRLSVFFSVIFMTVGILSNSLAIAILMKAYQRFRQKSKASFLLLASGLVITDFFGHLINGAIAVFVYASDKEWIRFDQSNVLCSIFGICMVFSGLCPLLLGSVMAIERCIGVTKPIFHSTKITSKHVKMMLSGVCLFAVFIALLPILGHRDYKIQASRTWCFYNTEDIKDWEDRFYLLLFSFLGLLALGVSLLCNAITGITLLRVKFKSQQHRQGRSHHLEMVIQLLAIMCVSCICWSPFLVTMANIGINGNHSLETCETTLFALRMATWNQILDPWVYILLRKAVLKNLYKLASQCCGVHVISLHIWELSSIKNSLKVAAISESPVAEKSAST
IP receptor, sequence (P43119 whole entry): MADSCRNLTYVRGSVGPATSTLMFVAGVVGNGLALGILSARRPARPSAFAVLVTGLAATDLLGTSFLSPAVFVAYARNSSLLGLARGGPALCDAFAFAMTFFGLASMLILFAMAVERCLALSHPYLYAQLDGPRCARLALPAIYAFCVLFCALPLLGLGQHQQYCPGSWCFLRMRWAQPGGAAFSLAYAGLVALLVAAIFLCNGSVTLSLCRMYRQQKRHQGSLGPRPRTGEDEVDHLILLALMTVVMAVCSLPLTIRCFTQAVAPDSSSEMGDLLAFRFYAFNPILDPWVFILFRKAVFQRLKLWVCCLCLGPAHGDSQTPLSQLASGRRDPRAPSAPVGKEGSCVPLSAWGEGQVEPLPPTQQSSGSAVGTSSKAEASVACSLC
EP4 receptor, sequence (P35408 whole entry): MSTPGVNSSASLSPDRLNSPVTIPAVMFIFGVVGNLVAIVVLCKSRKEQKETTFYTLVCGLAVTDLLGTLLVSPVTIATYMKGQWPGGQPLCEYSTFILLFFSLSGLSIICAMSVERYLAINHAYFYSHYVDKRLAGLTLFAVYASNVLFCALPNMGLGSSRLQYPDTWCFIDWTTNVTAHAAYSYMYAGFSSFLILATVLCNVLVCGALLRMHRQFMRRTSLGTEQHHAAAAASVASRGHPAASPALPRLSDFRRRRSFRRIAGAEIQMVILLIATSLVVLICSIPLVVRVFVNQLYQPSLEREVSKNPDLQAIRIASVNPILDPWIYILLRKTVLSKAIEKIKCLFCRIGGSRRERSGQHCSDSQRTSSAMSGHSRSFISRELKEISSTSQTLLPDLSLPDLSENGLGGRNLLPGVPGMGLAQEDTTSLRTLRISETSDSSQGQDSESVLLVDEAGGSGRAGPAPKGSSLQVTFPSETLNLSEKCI

Structure (SMILES) | FP (FP receptor) | DP (DP receptor) | EP1 (EP1 receptor) | EP3 (EP3 receptor) | EP4 (EP4 receptor) | IP (IP receptor) | TP (TP receptor) | EP2 (EP2 receptor)
CCS(=O)(=O)NC(=O)/C=C/c1ccc(F)cc1C[C@@H]1C(c2nc(C(=O)NCCCCC3CCCCC3)co2)C2CC[C@H]1O2 (stereo partly drawn) [Example 2, (E)-3R-[2R-[[3-[4-[[(4-cyclohexylbutyl)amino]carbonyl]-2-oxazolyl]-7-oxabicyclo[2.2.1]hept-2-yl]methyl]-4-fluoro-phenyl]-N-(ethylsulfonyl)acrylic amide] | 100 | 50 | 190 | 1600 | 140 | 1100 | <1 | –
O=C(O)/C=C/c1ccc(F)cc1C[C@@H]1C(c2nc(C(=O)NCCCCC3CCCCC3)co2)C2CC[C@H]1O2 (stereo partly drawn) [Example 1, (E)-3-(2R-{3R-[4-(4-Cyclohexyl-butylcarbamoyl)-oxazol-2-yl]-7-oxa-bicyclo[2.2.1]hept-2-ylmethyl}-4-fluoro-phenyl)-acrylic acid] | 60 | 70 | 380 | 5500 | 60 | – | <1 | –
CS(=O)(=O)NC(=O)/C=C/c1ccc(F)cc1C[C@@H]1C(c2nc(C(=O)NCCCCC3CCCCC3)co2)C2CC[C@H]1O2 (stereo partly drawn) [Example 3, (E)-3R-[2R-[[3-[4-[[(4-cyclohexylbutyl)amino]carbonyl]-2-oxazolyl]-7-oxabicyclo[2.2.1]hept-2-yl]methyl]-4-fluoro-phenyl]-N-(methylsulfonyl)acrylic amide] | 90 | 30 | 65 | 790 | 100 | – | <1 | –
O=C(/C=C/c1ccc(F)cc1C[C@@H]1C(c2nc(C(=O)NCCCCC3CCCCC3)co2)C2CC[C@H]1O2)NS(=O)(=O)CC(F)(F)F (stereo partly drawn) [Example 4, (E)-3R-[2R-[[3-[4-[[(4-cyclohexylbutyl)amino]carbonyl]-2-oxazolyl]-7-oxabicyclo[2.2.1]hept-2-yl]methyl]-4-fluoro-phenyl]-N-(2,2,2-trifluoroethanesulfonyl)acrylic amide] | 130 | 80 | 50 | 2500 | 80 | – | <1 | 5300

More lines, now with the values ahead:

FP (FP receptor) | DP (DP receptor) | EP1 (EP1 receptor) | EP3 (EP3 receptor) | EP4 (EP4 receptor) | IP (IP receptor) | TP (TP receptor) | EP2 (EP2 receptor) | Structure (SMILES)
370 | 45 | 80 | 1900 | 200 | 3500 | <1 | – | CCCCCCCCNC(=O)c1coc(C2C3CCC(O3)C2Cc2cc(F)ccc2/C=C/C(=O)NS(=O)(=O)CC)n1 (stereo not drawn) [Example 7]
50 | 10 | 40 | 700 | 30 | 3300 | <1 | 4000 | CCCCCCCCCNC(=O)c1coc(C2C3CCC(O3)C2Cc2cc(F)ccc2CCC(=O)NS(=O)(=O)C(F)(F)F)n1 (stereo not drawn) [Example 8, 2-{3-[5-Fluoro-2-(3-oxo-3-trifluoromethanesulfonylamino-propyl)-benzyl]-7-oxa-bicyclo[2.2.1]hept-2-yl}-oxazole-4-carboxylic acid nonylamide]
100 | 60 | 60 | 290 | 380 | 1500 | <1 | – | O=C(/C=C/c1ccc(F)cc1C[C@@H]1C(c2nc(C(=O)NCCCCC3CCCCC3)co2)C2CC[C@H]1O2)NS(=O)(=O)c1ccccc1 (stereo partly drawn) [Example 6, (E)-3R-[2R-[[3-[4-[[(4-cyclohexylbutyl)amino]carbonyl]-2-oxazolyl]-7-oxabicyclo[2.2.1]hept-2-yl]methyl]-4-fluoro-phenyl]-N-(benzenesulfonyl)acrylic amide]

From patent US20140187596A1, “FATTY ACID AMIDE HYDROLASE INHIHIBITORS FOR TREATING PAIN” (ALLERGAN, INC., priority 2011, published 2014)
